Values quoted from earlier work in paper PMC7465353, “Antioxidant Effects of PS5, a Peptidomimetic of Suppressor of Cytokine Signaling 1, in Experimental Atherosclerosis” (Antioxidants, 2020).

System: VSMCs

Substance: KIR peptide: peptide encompassing residues 52–67, i.e., kinase inhibitory region (KIR) of SOCS1 (DTHFRTFRSHADYRRI; UniProt O15524 52-67, looked up, fragment)
- VSMC migration, wound healing: significantly diminished the migration and proliferation
